# Laboratory results: article PMC7555970, “Design, Synthesis and Biological Evaluation of Biphenylglyoxamide-Based Small Molecular Antimicrobial Peptide Mimics as Antibacterial Agents” (International Journal of Molecular Sciences, 2020)
# Assays:
# S. aureus (SA38) [1] = details: previously synthesised N-sulfonylphenylglyoxamide iodide salts ref 43; cited from earlier work
# P. aeruginosa (PA01) = details: no antibacterial activity at the highest concentration tested (250 μM) ref 43; cited from earlier work
# E. coli (K12) = details: no antibacterial activity at the highest concentration tested (250 μM) ref 43; cited from earlier work
# Gram-negative bacteria = tested on: Gram-negative bacteria; design: method as in doi:10.1002/slct.201700336, PMID 28203673; details: previously reported ref 43, 44; cited from earlier work
# S. aureus (SA38) [2] = test: Minimum inhibitory concentration (MIC) assay against S. aureus; type: cell-based, Staphylococcus aureus; details: Staphylococcus aureus
# Method: The antimicrobial activity of the compounds was evaluated by MIC assay using the procedure described by Clinical and Laboratory Standards Institute (CLSI). A single colony of bacteria was cultured overnight in trypticase soy broth (TSB; Oxoid, Basingstoke, UK) at 37 °C with shaking. The resulting bacterial culture was collected by centrifugation and resuspended in TSB twice. The optical density (OD) of the resulting culture was adjusted to OD660 = 0.1 in TSB (which is equivalent to 10^8 colony forming unit (CFU)/mL bacteria). It was further diluted to 10^6 CFU/mL in TSB. 100 µL of the bacterial solution was then added to wells of a 96-well plate (Costar; Sigma-Aldrich, St Louis, MO, USA) containing 100 µL serially diluted peptide mimic, with final concentration ranging from 1 to 250 µM. Wells with bacteria but no compound were used as negative control while wells with only media were set as blank. The plates were then wrapped with parafilm to prevent evaporation and incubated with shaking at 120 rpm at 37 °C for 18–24 h, and the data were recorded by measuring the OD value at 660 nm using a FLUOstar Omega (BMG Labtech, Mornington, Victoria, Australia) microplate reader. […] Each experiment was performed in triplicate and was repeated in three independent experiments.
# [3] = tested on: established S. aureus biofilms; design: method as in PMID 27405275; details: 4× its MIC (32 μM) ref 52; cited from earlier work
compound,measurement,setting,value
CCCCCCCCS(=O)(=O)Nc1ccc(Br)cc1C(=O)C(=O)NCCC[N+](C)(C)C [Compound 4b],MIC against S. aureus,S. aureus (SA38) [1],63 µM
same,MIC against P. aeruginosa,P. aeruginosa (PA01),> 250 µM
same,MIC against E. coli,E. coli (K12),> 250 µM
same,antibacterial activity against Gram-negative bacteria,Gram-negative bacteria,no antibacterial activity
"CN(C)CCCNC(=O)C(=O)c1cc(-c2ccccc2)ccc1NC(=O)c1ccc2ccccc2c1 [Compound 25, N-(3-(2-((3-(Dimethylamino)propyl)amino)-2-oxoacetyl)-[1,1’-biphenyl]-4-yl)-2-naphthamide]",MIC,S. aureus (SA38) [2],> 250 µM
same,melting point,,151.6 to 151.8 °C
"LL-37: a natural antimicrobial peptide that is being tested in phase II clinical trials (LLGDFFRKSKEKIGKEFKRIVQRIKDFLRNLVPRTES; Antibacterial peptide LL-37; UniProt P49913 134-170, looked up)",disruption of mature S. aureus biofilms,[3],approximately 40%
